Where a name gives a salt, the structure may show the parent alone.
Biological target: T1, human NTCP (Homo sapiens, UniProt Q14973)
T1 sequence (Q14973 1-349): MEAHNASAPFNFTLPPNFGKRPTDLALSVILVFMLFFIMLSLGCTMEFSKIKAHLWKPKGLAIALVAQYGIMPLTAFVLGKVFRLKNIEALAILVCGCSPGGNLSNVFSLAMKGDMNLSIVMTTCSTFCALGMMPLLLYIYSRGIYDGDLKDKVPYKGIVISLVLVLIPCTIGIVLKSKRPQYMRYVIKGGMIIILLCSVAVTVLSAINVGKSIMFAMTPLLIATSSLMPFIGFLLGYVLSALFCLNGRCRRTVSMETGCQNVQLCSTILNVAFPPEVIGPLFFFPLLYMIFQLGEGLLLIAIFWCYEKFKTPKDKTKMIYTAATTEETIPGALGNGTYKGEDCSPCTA
Test: Screening taurocholate uptake assay (96-well, [14C]taurocholate, 10 µM drug)
Conditions: for B-score functional assay: screening taurocholate uptake, 10 µM drug

[1] = combined ranking of functional and binding screening assays
[2] = ranking over the functional and the binding screening assay

Structure (SMILES) | Ranking score [1] | B-score functional assay | Ranking score [2] | NTCP inhibition in the screen (in words) (10 µM, both screening assays) | position among the hits of the screen (combined ranking of both screening assays) (1280 drugs at 10 µM, TC uptake and Myrcludex B binding screens combined)
CS(=O)(=O)c1ccc([C@@H](O)[C@@H](CO)NC(=O)C(Cl)Cl)cc1 [Thiamphenicol] | 545.996 | -0.089 |  |  | 
CC(=O)O[C@@]12CO[C@@H]1C[C@H](O)[C@@]1(C)C(=O)[C@H](O)C3=C(C)[C@@H](OC(=O)[C@H](O)[C@@H](NC(=O)OC(C)(C)C)c4ccccc4)C[C@@](O)([C@@H](OC(=O)c4ccccc4)[C@H]21)C3(C)C [Docetaxel] |  | -5.513 | 106.066 |  | 
Cc1c(NC(=O)c2cccnc2)c(=O)n(-c2ccccc2)n1C [Nifenazone] | 560.079 | 0.488 |  |  | 
CC(=O)OCC(=O)[C@@]1(O)[C@H](C)C[C@H]2[C@@H]3CCC4=CC(=O)C=C[C@]4(C)[C@@]3(F)[C@@H](O)C[C@@]21C [Dexamethasone acetate] | 586.678 | 0.046 |  |  | 
CC(C(=O)O)c1ccc(C(=O)c2cccs2)cc1 (centres unmarked) [Suprofen] | 554.797 | -0.917 |  |  | 
C[C@@H]1CCC[C@H](C)N1NC(=O)c1ccc(Cl)c(S(N)(=O)=O)c1 [Clopamide] |  | -0.164 | 216.069 |  | 
COc1ccccc1OCC(O)CO (centres unmarked) [Guaifenesin] | 466.326 | 0.275 |  |  | 
OCCN1CCN(CCCN2c3ccccc3C=Cc3ccccc32)CC1 [Opipramol dihydrochloride] | 627.796 | -0.641 |  |  | 
Cl.Cl.c1ccc2c(c1)CCCc1cc(NCCN3CCOCC3)nnc1-2 |  | -1.983 | 77.0714 |  | 
CO[C@]12C[C@@H](COC(=O)c3cncc(Br)c3)CN(C)[C@@H]1Cc1cn(C)c3cccc2c13 [Nicergoline] | 615.79 | -0.256 |  |  | 
CNCC[C@@H](Oc1ccccc1C)c1ccccc1 [Tomoxetine hydrochloride] | 493.908 | 3.106 |  |  | 
OCCOCCN1CCN(C2=Nc3ccccc3Sc3ccccc32)CC1 [Quetiapine hemifumarate] | 473.772 | -0.346 |  |  | 
C[C@H](CCC(=O)O)[C@H]1CC[C@H]2[C@@H]3[C@@H](O)C[C@@H]4C[C@H](O)CC[C@]4(C)[C@H]3CC[C@]12C [Urosiol] |  | -4.542 | 126.965 |  | 
O=C1[C@H](CC[C@H](O)c2ccc(F)cc2)[C@@H](c2ccc(O)cc2)N1c1ccc(F)cc1 [ezetimibe, reference compound] |  | -4.28 | 30.4959 | confirmed NTCP inhibition | ≤ 150
NNc1nncc2ccccc12 [Hydralazine hydrochloride] | 587.239 | -0.84 |  |  | 
C=CC[C@]1(O)CC[C@H]2[C@@H]3CCC4=CC(=O)CCC4=C3C=C[C@@]21C [Altrenogest] | 607.028 | 0.332 |  |  | 
CC1Cc2ccccc2N1NC(=O)c1ccc(Cl)c(S(N)(=O)=O)c1 (centres unmarked) [Indapamide] | 559.557 | -0.108 |  |  | 
O=C(OCCOCCO)c1ccccc1Nc1cccc(C(F)(F)F)c1 [Etofenamate] |  | 1.885 | 165.439 |  | 
CC(=O)OC1CN2CCC1CC2 (centres unmarked) [Aceclidine Hydrochloride] |  | -1.773 | 189.214 |  | 
Cc1c(O)cccc1C(=O)N[C@@H](CSc1ccccc1)[C@H](O)CN1C[C@H]2CCCC[C@H]2C[C@H]1C(=O)NC(C)(C)C [Nelfinavir mesylate] |  | -3.419 | 28.9828 |  | 
C[C@H](CCC(=O)O)[C@H]1CC[C@H]2[C@@H]3[C@H](O)C[C@@H]4C[C@H](O)CC[C@]4(C)[C@H]3CC[C@]12C [Chenodiol] |  | -1.277 | 40.9878 |  | 
